{"source": "patent US20230414607A1", "about": "“METHODS OF TREATMENT” (BOW RIVER LLC, priority 2017, published 2023)", "key": {"CYP3A4 [1]": {"target": "T1, CYP3A4 (Homo sapiens, UniProt P08684)", "T1 sequence (P08684 whole entry)": "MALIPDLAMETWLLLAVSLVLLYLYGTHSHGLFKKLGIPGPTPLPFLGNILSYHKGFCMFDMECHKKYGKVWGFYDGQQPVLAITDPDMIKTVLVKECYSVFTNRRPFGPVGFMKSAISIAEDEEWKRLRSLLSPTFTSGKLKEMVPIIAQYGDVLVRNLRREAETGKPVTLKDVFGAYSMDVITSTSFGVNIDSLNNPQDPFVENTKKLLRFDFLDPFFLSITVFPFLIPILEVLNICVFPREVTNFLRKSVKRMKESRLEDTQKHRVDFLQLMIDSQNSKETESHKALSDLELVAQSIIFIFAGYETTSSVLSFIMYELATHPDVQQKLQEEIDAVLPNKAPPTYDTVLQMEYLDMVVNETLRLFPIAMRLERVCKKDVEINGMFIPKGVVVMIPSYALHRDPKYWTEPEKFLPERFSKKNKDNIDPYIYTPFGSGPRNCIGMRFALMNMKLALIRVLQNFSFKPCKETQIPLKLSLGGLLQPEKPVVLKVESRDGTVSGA", "conditions": "for predicted lurasidone AUC levels (reported as GMR) greater than baseline: human", "text": "Blood plasma levels may be described in various ways, such as area under the plasma concentration curve (AUC) and peak plasma concentration (Cmax). Baseline levels and posaconazole interaction levels for CYP3A4 substrate drugs may be compared using the geometric mean ratio (GMR) of AUC and Cmax. […] GMR is the standard industry and regulatory method for assessing the ratio of change of a pharmacokinetic variable (such as AUC) relative to its own baseline value (e.g., in a patient that was not treated with posaconazole). Once the level of substrate drug (AUC or Cmax) during co-administration with posaconazole and a CYP3A4 substrate drug is known, a function can be derived using conventional pharmacological methods to estimate how the AUC or plasma level of the CYP3A4 substrate drug is expected to decay over time after stopping administration of posaconazole. Such a function can be used to provide a plot of the decay GMR of AUC (or Cmax) of the CYP3A4 substrate drug versus time due to its interaction with posaconazole, based on the stated half-life of posaconazole.\nThe expected DDI decay curve can also be calculated for Cmax GMR by substituting Cmax during co-administration for AUC during co-administration in equation 1. As used herein, “expected levels” and “predicted levels” and the like, refer to the AUC or Cmax GMR values calculated using equation 1."}, "[2]": {"conditions": "cited from earlier work"}, "[3]": {"experiment": "Example 1: pharmacokinetic study with posaconazole and lurasidone in obese subjects", "assay_type": "in vivo, human", "experimental": "Inventors studied 6 obese male and female subjects (ages 18-50, BMI>35) taking Posaconazole oral tablets (300 mg qd) and Lurasidone (20 mg qd). Body weights and BMI measurements for the 6 subjects are provided below in Table 1.\nSubjects were dosed with Lurasidone alone on Day 1, then subsequently dosed to steady-state Posaconazole levels, with a loading dose of 300 mg twice a day on Day 2 and 300 mg once a day thereafter over a period of 14 days. Posaconazole administration was then stopped and Lurasidone (20 mg qd) administered 2, 4, and 6 days after administration had ceased (studies days 17, 19, and 21 respectively)."}, "[4]": {"conditions": "cited from earlier work", "remark": "listed apart in the source"}, "CYP3A4 [5]": {"target": "T1, CYP3A4", "conditions": "in vivo", "text": "The reduced dose of the CYP3A4 substrate drug may be administered with posaconazole, the day after stopping posaconazole, or two or more days (e.g., as described herein) after stopping posaconazole.\nTo mitigate this risk, in some embodiments the administration of the CYP3A4 substrate drug is contraindicated not just for co-administration with posaconazole, but the administration is also contraindicated for a period of time (e.g., 2 or more days) after stopping posaconazole beyond the label-prescribed delay of one day (i.e., contraindication for co-administration of the CYP3A4 substrate drug and posaconazole). In some embodiments, the present methods provide for administering the CYP3A4 substrate drug as soon as it is safe to do so, e.g., for time periods exceeding about 1 day, as described herein. […] This accounts for the need to treat the patient with the CYP3A4 substrate drug with no more delay (after stopping posaconazole) than is necessary, so that the risks of leaving such a patient untreated are minimized as much as possible."}, "CYP3A": {"test_system": "CYP3A", "experiment": "Example 2: lurasidone pharmacokinetics during and after posaconazole (drug-drug interaction)", "assay_type": "in vivo", "conditions": "human; for half-life: plasma, oral, read-out: Lurasidone elimination half-life, arithmetic mean ± S.E. (converted)"}, "CYP3A4 [6]": {"target": "T1, CYP3A4", "conditions": "in vivo; cited from earlier work"}, "[7]": {"conditions": "2 days after stopping posaconazole"}}, "note": "“And” between values parts separate entries of the source, which are not always exact repeats. Equal values may be shown once. Read-outs that look alike come from different tables or passages of the source."}
{"smiles": "O=C1[C@@H]2[C@H]3CC[C@H](C3)[C@@H]2C(=O)N1C[C@@H]1CCCC[C@H]1CN1CCN(c2nsc3ccccc23)CC1", "note": "[lurasidone]", "values": [{"measurement": "day after stopping posaconazole on which predicted AUC reaches baseline", "setting": "CYP3A4 [1]", "value": "~9", "unit": "days"}, {"measurement": "predicted lurasidone AUC levels (reported as GMR) greater than baseline", "setting": "CYP3A4 [1]; 1 day after stopping posaconazole", "value": "about 400%"}, {"measurement": "predicted lurasidone AUC levels (reported as GMR) greater than baseline", "setting": "CYP3A4 [1]; [7]", "value": "about 300%"}, {"measurement": "normal baseline AUC: mean AUC0-tau", "setting": "[2]; 120 mg lurasidone in the fed state after a 350 kcal meal", "value": "about 743 ng*h/mL"}, {"measurement": "normal baseline Cmax: mean Cmax", "setting": "[2]; 120 mg lurasidone in the fed state following a 350 kcal meal", "value": "about 160 ng/mL"}, {"measurement": "Lurasidone AUC Ratio relative to Day 1", "setting": "[3]; Day 17, 2 days after Posaconazole was stopped, individual obese subjects", "value": "2.98 and 1.78"}, {"measurement": "AUC", "setting": "[3]; both sexes, human, in vivo, 20 mg, Day 17, 2 days after Posaconazole was stopped, individual obese subjects", "value": 196, "unit": "ng·h/mL"}, {"measurement": "post-Posaconazole treatment mean AUC ratio values for Lurasidone", "setting": "[3]; both, human, in vivo", "value": "3.6-4.3 ×"}, {"measurement": "post-Posaconazole treatment mean AUC ratios of Lurasidone, times higher than the baseline", "setting": "[3]; both, human, in vivo", "value": "about 3 times"}, {"measurement": "increase in the AUC of lurasidone associated with somnolence", "setting": "[4]; about 3 fold increase in GMR", "value": "about 300%"}, {"measurement": "increase in AUC of lurasidone associated with akathisia", "setting": "[4]; about 4 fold increase in GMR", "value": 400, "unit": "%"}, {"measurement": "actual AUC levels, fold greater than expected", "setting": "CYP3A4 [5]; [7]", "value": "about 2 fold"}, {"measurement": "actual AUC levels, fold greater than expected", "setting": "CYP3A4 [5]; 3 days after stopping posaconazole", "value": "2-3 fold"}, {"measurement": "actual AUC levels, fold greater than expected", "setting": "CYP3A4 [5]; 4 days after stopping posaconazole", "value": "2.5-3.5 fold"}, {"measurement": "Corrected Cmax, arithmetic mean ± standard error", "setting": "CYP3A; in vivo, 20 mg", "value": "19.8 ± 4", "unit": "ng/mL"}, {"measurement": "Cmax", "setting": "CYP3A; in vivo, 20 mg, Corrected Cmax, arithmetic mean ± standard error", "value": "17.1 ± 1.6", "unit": "ng/mL"}, {"measurement": "half-life", "setting": "CYP3A; 20 mg, Normal, Day 1 (baseline)", "value": 9.4, "unit": "h"}, {"measurement": "half-life", "setting": "CYP3A; 20 mg, Normal, Day 20 (posaconazole given Days 4-17)", "value": "39 ± 3", "unit": "h"}, {"measurement": "half-life", "setting": "CYP3A; 20 mg, Normal, Day 23 (posaconazole given Days 4-17)", "value": "48 ± 5", "unit": "h"}, {"measurement": "half-life", "setting": "CYP3A; 20 mg, Normal, Day 26 (posaconazole given Days 4-17)", "value": "50 ± 7", "unit": "h"}, {"measurement": "half-life", "setting": "CYP3A; 20 mg, Normal, Day 30 (posaconazole given Days 4-17)", "value": "45 ± 9", "unit": "h"}, {"measurement": "half-life", "setting": "CYP3A; 20 mg, Obese, Day 1 (baseline)", "value": 10.9, "unit": "h"}, {"measurement": "half-life", "setting": "CYP3A; 20 mg, Obese, Day 20 (posaconazole given Days 4-17)", "value": "48 ± 4", "unit": "h"}, {"measurement": "half-life", "setting": "CYP3A; 20 mg, Obese, Day 23 (posaconazole given Days 4-17)", "value": "52 ± 3", "unit": "h"}, {"measurement": "half-life", "setting": "CYP3A; 20 mg, Obese, Day 26 (posaconazole given Days 4-17)", "value": "61 ± 4", "unit": "h"}, {"measurement": "half-life", "setting": "CYP3A; 20 mg, Obese, Day 30 (posaconazole given Days 4-17)", "value": "71 ± 5", "unit": "h"}, {"measurement": "half-life", "setting": "CYP3A; Normal, Day 14 (with posaconazole)", "value": "37 ± 4", "unit": "h"}, {"measurement": "half-life", "setting": "CYP3A; Obese, Day 14 (with posaconazole)", "value": "38 ± 2", "unit": "h"}]}
{"smiles": "CCOc1cc2ncc(C#N)c(Nc3ccc(OCc4ccccn4)c(Cl)c3)c2cc1NC(=O)/C=C/CN(C)C", "note": "[neratinib]", "values": [{"measurement": "Baseline AUC (% CV)", "setting": "[2]; AUC0-24 single dose 180 mg", "value": "734 ± 291", "unit": "ng·h/mL"}, {"measurement": "Baseline AUC (% CV)", "setting": "[2]; AUC0-24 single dose 240 mg", "value": "823 ± 291", "unit": "ng·h/mL"}, {"measurement": "Baseline AUC (% CV)", "setting": "[2]; AUC0-24 single dose 320 mg", "value": "1582 ± 800", "unit": "ng·h/mL"}, {"measurement": "Baseline Cmax (% CV)", "setting": "[2]; single dose 180 mg", "value": "65.9 ± 34.7", "unit": "ng/mL"}, {"measurement": "Baseline Cmax (% CV)", "setting": "[2]; single dose 240 mg", "value": "75.9 ± 12.9", "unit": "ng/mL"}, {"measurement": "Baseline Cmax (% CV)", "setting": "[2]; single dose 320 mg", "value": "118 ± 47.6", "unit": "ng/mL"}, {"measurement": "AUC co-administration levels, Fold change", "setting": "CYP3A4 [6]", "value": 5.81, "unit": "fold"}, {"measurement": "AUC co-administration levels, Percent of baseline", "setting": "CYP3A4 [6]", "value": 581, "unit": "%"}, {"measurement": "Cmax co-administration levels, Fold change", "setting": "CYP3A4 [6]", "value": 4.21, "unit": "fold"}, {"measurement": "Cmax co-administration levels, Percent of baseline", "setting": "CYP3A4 [6]", "value": 421, "unit": "%"}]}
{"smiles": "CN1CC(=O)N2[C@H](c3ccc4c(c3)OCO4)c3[nH]c4ccccc4c3C[C@@H]2C1=O", "note": "[tadalafil]", "values": [{"measurement": "normal baseline AUC: mean AUC0-∞ (% CV)", "setting": "[2]; 10 mg tadalafil", "value": "about 3647 (34.0%) μg*h/L"}, {"measurement": "normal baseline Cmax: mean Cmax (% CV)", "setting": "[2]; 10 mg tadalafil", "value": "190 (21.7%) μg/L"}, {"measurement": "normal baseline Cmax: mean Cmax (% CV)", "setting": "[2]; 20 mg tadalafil", "value": "548 (24.0%) μg/L"}]}
{"smiles": "COc1cc2c(cc1O)CCN[C@]21CS[C@@H]2c3c(OC(C)=O)c(C)c4c(c3[C@H](COC1=O)N1[C@@H]2[C@H]2c3c(cc(C)c(OC)c3O)C[C@@H]([C@@H]1O)N2C)OCO4", "note": "[trabectedin]", "values": [{"measurement": "Baseline AUC (% CV)", "setting": "[2]; AUCinf one dose (24 hr infusion) at 600 ug/m^2", "value": "12 (±4.8) ng*h/mL"}, {"measurement": "Baseline AUC (% CV)", "setting": "[2]; AUCinf one dose (24 hr infusion) at 900 ug/m^2", "value": "36 (±16) ng*h/mL"}, {"measurement": "Baseline AUC (% CV)", "setting": "[2]; AUCinf one dose (24 hr infusion) at 1200 ug/m^2", "value": "32 (±13) ng*h/mL"}, {"measurement": "Baseline AUC (% CV)", "setting": "[2]; AUCinf one dose (24 hr infusion) at 1500 ug/m^2", "value": "55 (±25) ng*h/mL"}, {"measurement": "Baseline Cmax (% CV)", "setting": "[2]; One dose (24 hr infusion) at 1500 ug/m^2", "value": "1.8 (±1.1) ng/ml"}, {"measurement": "AUC co-administration levels, Fold change", "setting": "CYP3A4 [6]", "value": 1.66, "unit": "fold"}, {"measurement": "AUC co-administration levels, Percent of baseline", "setting": "CYP3A4 [6]", "value": 166, "unit": "%"}, {"measurement": "Cmax co-administration levels, Fold change", "setting": "CYP3A4 [6]", "value": 1.22, "unit": "fold"}, {"measurement": "Cmax co-administration levels, Percent of baseline", "setting": "CYP3A4 [6]", "value": 122, "unit": "%"}]}
{"smiles": "CC[C@@H]1CN(C(=O)NCC(F)(F)F)C[C@@H]1c1cnc2cnc3[nH]ccc3n12", "note": "[upadacitinib]", "values": [{"measurement": "Baseline AUC (% CV)", "setting": "[2]; AUCinf single dose at 3 mg", "value": "103 ± 27.6", "unit": "ng·h/mL"}, {"measurement": "Baseline AUC (% CV)", "setting": "[2]; AUCinf single dose at 6 mg", "value": "160 ± 37.6", "unit": "ng·h/mL"}, {"measurement": "Baseline AUC (% CV)", "setting": "[2]; AUCinf single dose at 12 mg", "value": "331 ± 49.8", "unit": "ng·h/mL"}, {"measurement": "Baseline AUC (% CV)", "setting": "[2]; AUCinf single dose at 24 mg", "value": "615 ± 78.1", "unit": "ng·h/mL"}, {"measurement": "Baseline Cmax (% CV)", "setting": "[2]; single dose at 6 mg", "value": "38.9 ± 9.96", "unit": "ng/mL"}, {"measurement": "Baseline Cmax (% CV)", "setting": "[2]; single dose at 12 mg", "value": "82.9 ± 12.1", "unit": "ng/mL"}]}
